Assay results published in patent US20240148821A1, “PHARMACEUTICAL USE OF CYCLIC PEPTIDE COMPOUND” (CHUGAI SEIYAKU KABUSHIKI KAISHA, priority 2021, published 2024).
Numbered stars: 1 amine (or outer) side, 2 acyl side, 3 side chain; on linkers, the order of the positions; unused ones are H or OH. Bridge positions count the residues as written; N and C are the ends. Square brackets hold non-standard residues; d marks the D form. Peptide text beside a SMILES is read from it. * marks the point of attachment. hPhe(3,5-F2-4-CF3) = N[C@@H](CCc1cc(F)c(C(F)(F)F)c(F)c1)C(=O)O; hPhe(3-Cl-4-CF3) = N[C@@H](CCc1ccc(C(F)(F)F)c(Cl)c1)C(=O)O; hPhe(3-F,4-CF3) = N[C@@H](CCc1ccc(C(F)(F)F)c(F)c1)C(=O)O; NEtPhe(4-CF3) = CCN[C@@H](Cc1ccc(C(F)(F)F)cc1)C(=O)O; NMePhe(4-CF3) = CN[C@@H](Cc1ccc(C(F)(F)F)cc1)C(=O)O; NMePhe(4-Cl) = CN[C@@H](Cc1ccc(Cl)cc1)C(=O)O; NMePhe(4-Me) = CN[C@@H](Cc1ccc(C)cc1)C(=O)O; NMePhe(2-Cl) = CN[C@@H](Cc1ccccc1Cl)C(=O)O; NMedβ3hAla = C[C@H](CC(=O)[*:2])N(C)[*:1]; NMeAla(cPent) = CN[C@@H](CC1CCCC1)C(=O)O; NMeGly(cPent) = CN[C@H](C(=O)O)C1CCCC1; NMeCha = CN[C@@H](CC1CCCCC1)C(=O)O; Ala(cPr) = N[C@@H](CC1CC1)C(=O)O; Hyp = O=C(O)[C@@H]1C[C@@H](O)CN1; NMeAhp(2) = CCCCC[C@H](NC)C(=O)O; NMeI = CC[C@H](C)[C@H](NC)C(=O)O; NMeD = CN[C@@H](CC(=O)O)C(=O)O; NMeL = CN[C@@H](CC(C)C)C(=O)O; NMeV = CN[C@H](C(=O)O)C(C)C; Morpholide = C1CN(*)CCO1; NMeA = CN[C@@H](C)C(=O)O; NMeAib = CNC(C)(C)C(=O)O; Piperidide = C1CCN(*)CC1; Ac5c = NC1(C(=O)O)CCCC1; Aze = O=C(O)[C@@H]1CCN1; Sar = CNCC(=O)O

How the values were obtained:
[1] = system: Human pancreatic cancer cell line AsPC-1 (G12D mutation Kras); assay: AsPC-1 cell growth inhibition (AsPC-1 CGI); format: cell-based; conditions: read-out: AsPC-1 cell growth inhibition, 50% growth inhibitory concentration (IC50 value); 96 hours, CellTiter-Glo, values classified in ranges
Method: Test compounds were serially dilated with dimethyl sulfoxide, and 200 nL was then dispensed to a U-bottom 96-well plate using Labcyte Echo. […] The cell suspension was dispensed to a. plate containing a test compound at 100 μL per well and incubated at 37° C. in a 5% carbon dioxide gas incubator. 96 hours later, 80 μL of CellTiter-Glo (Promega) was added to each well and fluorescence was measured.

[2] = target: protein-protein interaction between Kras and SOS1 (biotin-tagged human Kras loaded with GDP, His-tagged human SOS1) (Homo sapiens (Human), UniProt P01116, G12D); assay: Protein-protein interaction inhibition between Kras and SOS1 (KrasG12D-SOS PPI) using AlphaScreen; format: biochemical; conditions: AlphaScreen; biotin-tagged human Kras loaded with GDP, His-tagged human SOS1; read-out: KRAS G12D-SOS PPI IC50;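 also: kras produced in E. coli, Ni-coupled donor beads and streptavidin acceptor beads, excitation 680 nm with emission detected at 520–620 nm via singlet oxygen transfer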

SMILES	IC50 [1] [nM]	IC50 [2] [nM]
CC[C@H](C)[C@@H]1NC(=O)[C@H](C)N(C)C(=O)C[C@@H](C(=O)N(C)C)N(C)C(=O)[C@H](C(C)C)N(C)C(=O)C2(CCCC2)NC(=O)[C@H](Cc2ccccc2Cl)N(C)C(=O)[C@H](CCc2ccc(C(F)(F)F)c(Cl)c2)NC(=O)CN(C)C(=O)[C@H](CC2CCCCC2)N(C)C(=O)CN(C)C(=O)CN(C)C1=O [Compound 317] ([NMeA]I[Sar][Sar][NMeCha][Sar][hPhe(3-Cl-4-CF3)][NMePhe(2-Cl)][Ac5c][NMeV][NMeD]-NMe2; lactam N-11)	> 500	30
CC[C@H](C)[C@@H]1NC(=O)[C@H](CC(C)C)N(C)C(=O)C[C@@H](C(=O)N2CCCCC2)N(C)C(=O)[C@H](C(C)C)N(C)C(=O)C2(CCCC2)NC(=O)[C@@H]2CCCN2C(=O)[C@H](CCc2ccc(C(F)(F)F)c(Cl)c2)NC(=O)CN(C)C(=O)[C@H](CC2CCCCC2)N(C)C(=O)[C@@H]2CCN2C(=O)[C@@H]2CCN2C1=O [Compound 318] ([NMeL]I[Aze][Aze][NMeCha][Sar][hPhe(3-Cl-4-CF3)]P[Ac5c][NMeV][NMeD]-Piperidide; lactam N-11)	> 500	19
CC[C@H](C)[C@@H]1NC(=O)[C@H](CC(C)C)N(C)C(=O)C[C@@H](C)N(C)C(=O)[C@H](CC(C)C)NC(=O)C(C)(C)N(C)C(=O)[C@H]([C@@H](C)CC)NC(=O)[C@H](CCc2ccc(C(F)(F)F)c(F)c2)NC(=O)CN(C)C(=O)[C@H](Cc2ccc(Cl)cc2)N(C)C(=O)CN(C)C(=O)CN(C)C1=O [Compound 332] (cyclo(I[NMeAib]L[NMedβ3hAla][NMeL]I[Sar][Sar][NMePhe(4-Cl)][Sar][hPhe(3-F,4-CF3)]))	> 500	210
CC[C@H](C)[C@@H]1NC(=O)[C@H](CC(C)C)N(C)C(=O)C[C@@H](C(=O)N(C)C)N(C)C(=O)[C@H](C2CCCC2)N(C)C(=O)C2(CCCC2)NC(=O)[C@@H]2CCCN2C(=O)[C@H](CCc2ccc(C(F)(F)F)c(F)c2)NC(=O)CN(C)C(=O)[C@H](CC2CCCCC2)N(C)C(=O)[C@@H]2CCN2C(=O)[C@H](C)N(C)C1=O [Compound 334] ([NMeL]I[NMeA][Aze][NMeCha][Sar][hPhe(3-F,4-CF3)]P[Ac5c][NMeGly(cPent)][NMeD]-NMe2; lactam N-11)	≤ 20	0.5
CCCCC[C@H]1C(=O)N[C@@H]([C@@H](C)CC)C(=O)N[C@@H](C)C(=O)N2CC[C@H]2C(=O)N(C)[C@@H](Cc2ccc(C)cc2)C(=O)N(C)CC(=O)N[C@@H](CCc2ccc(C(F)(F)F)c(Cl)c2)C(=O)N2CCC[C@H]2C(=O)NC2(CCCC2)C(=O)N(C)[C@@H]([C@@H](C)CC)C(=O)N(C)[C@H](C(=O)N(C)C)CC(=O)N1C [Compound 342] ([NMeAhp(2)]IA[Aze][NMePhe(4-Me)][Sar][hPhe(3-Cl-4-CF3)]P[Ac5c][NMeI][NMeD]-NMe2; lactam N-11)	≤ 20	0.95
CCCCC[C@H]1C(=O)N[C@@H]([C@@H](C)CC)C(=O)N(C)[C@@H](C)C(=O)N2CC[C@H]2C(=O)N(C)[C@@H](C2CCCC2)C(=O)N(C)CC(=O)N[C@@H](CCc2ccc(C(F)(F)F)c(Cl)c2)C(=O)N2CCC[C@H]2C(=O)NC2(CCCC2)C(=O)N(C)[C@@H](C2CCCC2)C(=O)N(C)[C@H](C(=O)N2CCOCC2)CC(=O)N1C [Compound 343] ([NMeAhp(2)]I[NMeA][Aze][NMeGly(cPent)][Sar][hPhe(3-Cl-4-CF3)]P[Ac5c][NMeGly(cPent)][NMeD]-Morpholide; lactam N-11)	≤ 20	0.87
CCO[C@@H]1C[C@H]2C(=O)NC3(CCCC3)C(=O)N(C)[C@@H](C3CCCC3)C(=O)N(C)[C@H](C)CC(=O)N(C)[C@@H](CC(C)C)C(=O)N[C@@H]([C@@H](C)CC)C(=O)N(C)[C@@H](C)C(=O)N3CC[C@H]3C(=O)N(C)[C@@H](Cc3ccc(C(F)(F)F)cc3)C(=O)N(C)CC(=O)N[C@@H](CCc3cc(F)c(C(F)(F)F)c(F)c3)C(=O)N2C1 [Compound 344] (cyclo([Ac5c][NMeGly(cPent)][NMedβ3hAla][NMeL]I[NMeA][Aze][NMePhe(4-CF3)][Sar][hPhe(3,5-F2-4-CF3)][Hyp](Et)))	≤ 20	0.83
CC[C@H](C)[C@@H]1NC(=O)[C@H](C)N(C)C(=O)C[C@@H](C(=O)N2CCCCC2)N(C)C(=O)[C@H](C(C)C)N(C)C(=O)C2(CCCC2)NC(=O)[C@H](Cc2ccc(C)cc2)N(C)C(=O)[C@H](CCc2ccc(C(F)(F)F)c(Cl)c2)NC(=O)CN(C)C(=O)[C@H](CC2CCCCC2)N(C)C(=O)CN(C)C(=O)CN(C)C1=O [Compound 346] ([NMeA]I[Sar][Sar][NMeCha][Sar][hPhe(3-Cl-4-CF3)][NMePhe(4-Me)][Ac5c][NMeV][NMeD]-Piperidide; lactam N-11)	> 500	11
CC(C)C[C@H]1C(=O)N[C@@H](CC2CC2)C(=O)N(C)[C@@H](C)C(=O)N2CC[C@H]2C(=O)N(C)[C@@H](CC2CCCCC2)C(=O)N(C)CC(=O)N[C@@H](CCc2ccc(C(F)(F)F)c(Cl)c2)C(=O)N2CCC[C@H]2C(=O)NC2(CCCC2)C(=O)N(C)[C@@H](C(C)C)C(=O)N(C)[C@H](C(=O)N2CCCCC2)CC(=O)N1C [Compound 358] ([NMeL][Ala(cPr)][NMeA][Aze][NMeCha][Sar][hPhe(3-Cl-4-CF3)]P[Ac5c][NMeV][NMeD]-Piperidide; lactam N-11)	> 500	33
CCO[C@@H]1C[C@H]2C(=O)NC3(CCCC3)C(=O)N(C)[C@@H]([C@@H](C)CC)C(=O)N(C)[C@H](C)CC(=O)N(C)[C@@H](CC(C)C)C(=O)N[C@@H]([C@@H](C)CC)C(=O)N(C)[C@@H](C)C(=O)N3CC[C@H]3C(=O)N(C)[C@@H](Cc3ccc(C(F)(F)F)cc3)C(=O)N(C)CC(=O)N[C@@H](CCc3cc(F)c(C(F)(F)F)c(F)c3)C(=O)N2C1 [Compound 362] (cyclo([Ac5c][NMeI][NMedβ3hAla][NMeL]I[NMeA][Aze][NMePhe(4-CF3)][Sar][hPhe(3,5-F2-4-CF3)][Hyp](Et)))	≤ 20	0.66
CC[C@H](C)[C@@H]1NC(=O)[C@H](CC(C)C)N(C)C(=O)C[C@@H](C(=O)N2CCCCC2)N(C)C(=O)[C@H](C2CCCC2)N(C)C(=O)C2(CCCC2)NC(=O)[C@@H]2CCCN2C(=O)[C@H](CCc2ccc(C(F)(F)F)c(Cl)c2)NC(=O)CN(C)C(=O)[C@H](Cc2ccc(C(F)(F)F)cc2)N(C)C(=O)[C@@H]2CCN2C(=O)[C@H](C)N(C)C1=O [Compound 370] ([NMeL]I[NMeA][Aze][NMePhe(4-CF3)][Sar][hPhe(3-Cl-4-CF3)]P[Ac5c][NMeGly(cPent)][NMeD]-Piperidide; lactam N-11)	≤ 20	0.35
CC[C@H](C)[C@@H]1NC(=O)[C@H](CC(C)C)N(C)C(=O)C[C@@H](C)N(C)C(=O)[C@H](C2CCCC2)N(C)C(=O)C2(CCCC2)NC(=O)[C@@H]2CCCN2C(=O)[C@H](CCc2cc(F)c(C(F)(F)F)c(F)c2)NC(=O)CN(C)C(=O)[C@H](Cc2ccc(C(F)(F)F)cc2)N(C)C(=O)[C@@H]2CCN2C(=O)[C@H](C)N(C)C1=O [Compound 371] (cyclo([Ac5c][NMeGly(cPent)][NMedβ3hAla][NMeL]I[NMeA][Aze][NMePhe(4-CF3)][Sar][hPhe(3,5-F2-4-CF3)]P))	≤ 20	1.3
CCO[C@@H]1C[C@H]2C(=O)NC3(CCCC3)C(=O)N(C)[C@@H]([C@@H](C)CC)C(=O)N(C)[C@H](C)CC(=O)N(C)[C@@H](CC(C)C)C(=O)N[C@@H]([C@@H](C)CC)C(=O)N(C)[C@@H](C)C(=O)N3CC[C@H]3C(=O)N(CC)[C@@H](Cc3ccc(C(F)(F)F)cc3)C(=O)N(C)CC(=O)N[C@@H](CCc3cc(F)c(C(F)(F)F)c(F)c3)C(=O)N2C1 [Compound 374] (cyclo([Ac5c][NMeI][NMedβ3hAla][NMeL]I[NMeA][Aze][NEtPhe(4-CF3)][Sar][hPhe(3,5-F2-4-CF3)][Hyp](Et)))	≤ 20	6.5
CC[C@H](C)[C@@H]1NC(=O)[C@H](CC(C)C)N(C)C(=O)C[C@@H](C(=O)N2CCOCC2)N(C)C(=O)[C@H]([C@@H](C)CC)N(C)C(=O)C2(CCCC2)NC(=O)[C@@H]2CCCN2C(=O)[C@H](CCc2ccc(C(F)(F)F)c(Cl)c2)NC(=O)CN(C)C(=O)[C@H](C2CCCC2)N(C)C(=O)[C@@H]2CCN2C(=O)[C@H](C)N(C)C1=O [Compound 381] ([NMeL]I[NMeA][Aze][NMeGly(cPent)][Sar][hPhe(3-Cl-4-CF3)]P[Ac5c][NMeI][NMeD]-Morpholide; lactam N-11)	≤ 20	1.6
CC[C@H](C)[C@@H]1NC(=O)[C@H](CC(C)C)N(C)C(=O)C[C@@H](C(=O)N2CCOCC2)N(C)C(=O)[C@H](C2CCCC2)N(C)C(=O)C2(CCCC2)NC(=O)[C@@H]2CCCN2C(=O)[C@H](CCc2ccc(C(F)(F)F)c(F)c2)NC(=O)CN(C)C(=O)[C@H](CC2CCCCC2)N(C)C(=O)[C@@H]2CCN2C(=O)[C@H](C)N(C)C1=O [Compound 390] ([NMeL]I[NMeA][Aze][NMeCha][Sar][hPhe(3-F,4-CF3)]P[Ac5c][NMeGly(cPent)][NMeD]-Morpholide; lactam N-11)	≤ 20	0.77
CC[C@H](C)[C@@H]1NC(=O)[C@H](CC2CCCC2)N(C)C(=O)C[C@@H](C(=O)N(C)C)N(C)C(=O)[C@H]([C@@H](C)CC)N(C)C(=O)C2(CCCC2)NC(=O)[C@@H]2CCCN2C(=O)[C@H](CCc2ccc(C(F)(F)F)c(Cl)c2)NC(=O)CN(C)C(=O)[C@H](Cc2ccc(C)cc2)N(C)C(=O)[C@@H]2CCN2C(=O)[C@H](C)N(C)C1=O [Compound 400] ([NMeAla(cPent)]I[NMeA][Aze][NMePhe(4-Me)][Sar][hPhe(3-Cl-4-CF3)]P[Ac5c][NMeI][NMeD]-NMe2; lactam N-11)	≤ 20	0.85
CC[C@H](C)[C@@H]1NC(=O)[C@H](CC(C)C)N(C)C(=O)C[C@@H](C)N(C)C(=O)[C@H]([C@@H](C)CC)N(C)C(=O)C2(CCCC2)NC(=O)[C@@H]2CCCN2C(=O)[C@H](CCc2ccc(C(F)(F)F)c(F)c2)NC(=O)CN(C)C(=O)[C@H](Cc2ccc(C)cc2)N(C)C(=O)[C@@H]2CCN2C(=O)[C@H](C)N(C)C1=O [Compound 404] (cyclo([Ac5c][NMeI][NMedβ3hAla][NMeL]I[NMeA][Aze][NMePhe(4-Me)][Sar][hPhe(3-F,4-CF3)]P))	≤ 20	4.8
